Assay results from US11697667B2, “Salts and polymorphs of cethromycin for the treatment of disease” (AliquantumRx, Inc., priority 2019, dated 2023).
≈ marks a conversion by molar mass, not a printed value. Where “and” joins values, the source holds several entries; their conditions need not be identical. Identical values can stand only once. Entries after “also recorded” stand apart in the source; their conditions may differ. Blank lines part the entries; values can stand above or below the compound they belong to.

What was measured:
Type in all cases: physicochemical
[1] = Kinetic solubility (2 hours) in SGF media
Procedure: Sufficient sample was suspended in 0.25 ml media for a maximum anticipated concentration of ca. 40 mg/ml of the free form of the compound. The resulting suspensions were then shaken at 25° C./750 rpm for 2 hours. After equilibration, the appearance was noted, and the pH of the saturated solution was measured. Samples were then filtered through a glass ‘C’ fibre filter (particle retention 1.2 μm). All the samples were diluted 100 times with SGF media. […] Different volumes of the standard and diluted sample solutions were injected.

[2] = Thermodynamic solubility (24 hours) in DI water
Procedure: (§1) Sufficient sample was suspended in 0.25 ml media for a maximum anticipated concentration of ca. 40 mg/ml of the free form of the compound. The resulting suspensions were then shaken at 25° C./750 rpm for 24 hours. The pH of samples suspended in PBS pH 7.4 were checked and adjusted if necessary (>0.05 change in pH) after 2 hours. After equilibration, the appearance was noted and the pH of the saturated solution was measured. Samples were then filtered through a glass ‘C’ fibre filter (Particle retention 1.2 μm). Samples suspended in PBS pH 7.4 buffer was diluted 10 times with PBS buffer and samples suspended in DI water diluted 100 times with DI water.

[3] = Preliminary solubility investigation of amorphous cethromycin in solvents; settings: for Solubility: 50 °C, organic solvent or mixture, thermodynamic from solid, heated to 50° C.
Procedure: Amorphous cethromycin (25 mg) in HPLC vials was treated with increasing volumes of solvent until the material fully dissolved or until a maximum of 60 vol (1.5 ml) had been added. After each addition of solvent, the vials were stirred and gently heated to 50° C. before the addition of a new aliquot of solvent. […] All solids were then isolated by filtration and dried under suction. Antisolvent (n-heptane, 10 or 20 vol) was added to any solutions and the resulting gums were matured in a chamber switching from 25° C. to 50° C. every four hours. All isolated solids were analysed by PXRD.

[4] = PXRD of residues undissolved after solubility analysis
Procedure: PXRD analysis was performed on residues that remained undissolved after the solubility analysis to check for changes in solid form.

[5] = Thermodynamic solubility (24 hours) in PBS media; settings: PBS pH 7.4, 24 hr (Table 33)
Procedure: as §1

[6] = Storage stability at 40° C./75% RH and 25° C./97% RH (PXRD, HPLC, NMR)
Procedure: Studies were performed on various cethromycin forms in order to determine stability for storage.

[7] = Solubility assessment of amorphous cethromycin chloride in solvents at 25° C.
[8] = Variable-temperature PXRD / thermal behaviour of acetate pattern 1; settings: after VT PXRD
Procedure: For variable temperature (VT-XRPD) experiments samples were mounted on an Anton Paar DHS 900 hot stage at ambient conditions. The sample was then heated to the appropriate temperature at 20° C./min and subsequently held isothermally for 1 minute before data collection. Samples were prepared and analysed on a silicon wafer mounted to the hot stage using a heat-conducting paste.
In order to investigate this further a VT PXRD experiment on this material was carried out. On heating, the original white powder converts first to a translucent solid by 130° C., then to a translucent white solid by 170° C. This conversion is accompanied by loss of the original diffraction pattern is lost and appearance of a new diffraction pattern. […] The material is stable at RT.

solubility kinetic at 2 h ([1]; simulated gastric fluid, thermodynamic from solid, 2 hours, 25° C.): 25 mg/mL (≈ 32.6 mM) | pH of the saturated solution, thermodynamic solubility in DI water ([2]; DI water, 24 hours): 7.0 | solubility thermodynamic at 24 h ([2]; thermodynamic from solid, DI water, 24 hours, 25° C.): 0.4 mg/mL (≈ 0.522 mM) | Solubility ([3]; 2-propanol, 10 vol): > 100 mg/mL | Solubility in solvents ([3]; 10 vol of THF:H2O (9:1), 2-propanol, EtOH, EtOAc, acetone, MeCN, THF, TBME and DCM): readily soluble | Solubility ([3]; DCM, 10 vol): > 100 mg/mL | Solubility ([3]; EtOAc, 10 vol): > 100 mg/mL | Solubility ([3]; EtOH, 10 vol): > 100 mg/mL | Solubility ([3]; Hept (heptane), Hept, 10 vol): < 100 mg/mL | Solubility ([3]; Hept (heptane), Hept, 20 vol): < 50 mg/mL | Solubility ([3]; Hept (heptane), Hept, 30 vol): < 33.3 mg/mL | Solubility ([3]; Hept (heptane), Hept, 40 vol): < 25 mg/mL | Solubility ([3]; Hept (heptane), Hept, 50 vol): < 20 mg/mL | Solubility ([3]; Hept (heptane), Hept, 60 vol): < 16.7 mg/mL | Solubility ([3]; MeCN, 10 vol): > 100 mg/mL | Solubility ([3]; TBME, 10 vol): > 100 mg/mL | Solubility ([3]; THF, 10 vol): > 100 mg/mL | Solubility ([3]; THF:H2O (9:1), THF:H2O (9:1), 10 vol): > 100 mg/mL | Solubility ([3]; acetone, 10 vol): > 100 mg/mL
Compound: CC[C@H]1OC(=O)[C@H](C)C(=O)[C@H](C)[C@@H](O[C@@H]2O[C@H](C)C[C@H](N(C)C)[C@H]2O)[C@](C)(OC/C=C/c2cnc3ccccc3c2)C[C@@H](C)C(=O)[C@H](C)[C@H]2NC(=O)O[C@@]21C [Cethromycin, (3aS,4R,7R,9R,10R,11R,13R,15R,15aR)-10-(((2S,3R,4S,6R)-4-(dimethylamino)-3-hydroxy-6-methyltetrahydro-2H-pyran-2-yl)oxy)-4-ethyl-3a,7,9,11,13,15-hexamethyl-11-(((E)-3-(quinolin-3-yl)allyl)oxy)octahydro-2H-[1]oxa-cyclotetradecino[4,3-d]oxazole-2,6,8,14(1H,7H,9H)-tetraone]

Compound: CCC1OC(=O)C(C)C(=O)C(C)C(OC2OC(C)CC(N(C)C)C2O)C(C)(OCC=Cc2cnc3ccccc3c2)CC(C)C(=O)C(C)C2NC(=O)OC12C (stereo not drawn) [Free form]
Avg Sol'y ([1]; 2 hr (Table 32)): 25 mg/mL | Sol'y ([1]; 2 hr (Table 32)): 24 mg/mL | pH at 2 hrs ([1]; 2 hr (Table 32)): 7.6 and 7.5 | Avg Sol'y ([2]; DI Water, 24 hr (Table 34)): 0.41 mg/mL | Sol'y ([2]; DI Water, 24 hr (Table 34)): 0.47 mg/mL and 0.35 mg/mL | pH at 24 hrs ([2]; DI Water, 24 hr (Table 34)): 8.1 | PXRD of Residues ([4]; PBS pH 7.4, 24 hr): freebase pattern 2 | PXRD of Residues ([4]; SGF media, 2 hr): amorphous | Avg Sol'y [5]: 2.0 mg/mL | Sol'y [5]: 2.0 mg/mL and 1.9 mg/mL | pH at 24 hrs [5]: 6.8

Compound: CCC1OC(=O)C(C)C(=O)C(C)C(OC2OC(C)CC(N(C)C)C2O)C(C)(OCC=Cc2cnc3ccccc3c2)CC(C)C(=O)C(C)C2NC(=O)OC12C.Cl (stereo not drawn) [amorphous cethromycin chloride]
Storage at 40° C./75% RH for 9 days (PXRD) ([6]; 9 days, Batch D): did not crystallise; also recorded: amorphous | Solubility in selected solvents ([7]; 18 solvents): soluble in 10 of the 18 solvents | Solubility ([7]; Acetone, 1 vol): ✓ (dissolved) | Solubility ([7]; EtOAc, 1 vol): x (not dissolved/too dry to slurry) | Solubility ([7]; EtOAc, 2 vol): x (not dissolved/too dry to slurry) | Solubility ([7]; EtOAc, 3 vol): x (not dissolved/too dry to slurry) | Solubility ([7]; EtOAc, 4 vol): x (not dissolved/too dry to slurry) | Solubility ([7]; EtOAc, 5 vol): ✓o (slurry) | Solubility ([7]; EtOH/H2O (10%), 1 vol): ✓ (dissolved) | Solubility ([7]; Ethanol, 1 vol): ✓ (dissolved) | Solubility ([7]; Hept, 1 vol): x (not dissolved/too dry to slurry) | Solubility ([7]; Hept, 2 vol): x (not dissolved/too dry to slurry) | Solubility ([7]; Hept, 3 vol): x (not dissolved/too dry to slurry) | Solubility ([7]; Hept, 4 vol): x (not dissolved/too dry to slurry) | Solubility ([7]; Hept, 5 vol): x (not dissolved/too dry to slurry) | Solubility ([7]; Hept, 10 vol): ✓o (slurry) | Solubility ([7]; MEK, 1 vol): x (not dissolved/too dry to slurry) | Solubility ([7]; MEK, 2 vol): x (not dissolved/too dry to slurry) | Solubility ([7]; MEK, 3 vol): x (not dissolved/too dry to slurry) | Solubility ([7]; MEK, 4 vol): x (not dissolved/too dry to slurry) | Solubility ([7]; MEK, 5 vol): ✓o (slurry) | Solubility ([7]; MIBK, 1 vol): x (not dissolved/too dry to slurry) | Solubility ([7]; MIBK, 2 vol): x (not dissolved/too dry to slurry) | Solubility ([7]; MIBK, 3 vol): x (not dissolved/too dry to slurry) | Solubility ([7]; MIBK, 4 vol): x (not dissolved/too dry to slurry) | Solubility ([7]; MIBK, 5 vol): ✓o (slurry) | Solubility ([7]; MTBE, 1 vol): x (not dissolved/too dry to slurry) | Solubility ([7]; MTBE, 2 vol): x (not dissolved/too dry to slurry) | Solubility ([7]; MTBE, 3 vol): x (not dissolved/too dry to slurry) | Solubility ([7]; MTBE, 4 vol): x (not dissolved/too dry to slurry) | Solubility ([7]; MTBE, 10 vol): ✓o (slurry) | Solubility ([7]; MeCN, 1 vol): ✓ (dissolved) | Solubility ([7]; MeOH, 1 vol): ✓ (dissolved) | Solubility ([7]; THF, 1 vol): x (not dissolved/too dry to slurry) | Solubility ([7]; THF, 2 vol): x (not dissolved/too dry to slurry) | Solubility ([7]; THF, 3 vol): x (not dissolved/too dry to slurry) | Solubility ([7]; THF, 4 vol): x (not dissolved/too dry to slurry) | Solubility ([7]; THF, 5 vol): ✓ (dissolved) | Solubility ([7]; THF/H2O (10%), 1 vol): ✓ (dissolved) | Solubility ([7]; Toluene, 1 vol): x (not dissolved/too dry to slurry) | Solubility ([7]; Toluene, 2 vol): x (not dissolved/too dry to slurry) | Solubility ([7]; Toluene, 3 vol): x (not dissolved/too dry to slurry) | Solubility ([7]; Toluene, 4 vol): x (not dissolved/too dry to slurry) | Solubility ([7]; Toluene, 5 vol): x (not dissolved/too dry to slurry) | Solubility ([7]; Toluene, 10 vol): ✓o (slurry) | Solubility ([7]; cHex, 1 vol): x (not dissolved/too dry to slurry) | Solubility ([7]; cHex, 2 vol): x (not dissolved/too dry to slurry) | Solubility ([7]; cHex, 3 vol): x (not dissolved/too dry to slurry) | Solubility ([7]; cHex, 4 vol): x (not dissolved/too dry to slurry) | Solubility ([7]; cHex, 5 vol): x (not dissolved/too dry to slurry) | Solubility ([7]; cHex, 10 vol): ✓o (slurry) | Solubility ([7]; iBuOH, 1 vol): ✓ (dissolved) | Solubility ([7]; iPrOAc, 1 vol): x (not dissolved/too dry to slurry) | Solubility ([7]; iPrOAc, 2 vol): x (not dissolved/too dry to slurry) | Solubility ([7]; iPrOAc, 3 vol): x (not dissolved/too dry to slurry) | Solubility ([7]; iPrOAc, 4 vol): x (not dissolved/too dry to slurry) | Solubility ([7]; iPrOAc, 5 vol): x (not dissolved/too dry to slurry) | Solubility ([7]; iPrOAc, 10 vol): ✓o (slurry) | Solubility ([7]; iPrOH, 1 vol): ✓ (dissolved) | Solubility ([7]; iPrOH/H2O (10%), 1 vol): ✓ (dissolved)

HPLC Purity after storage at 40° C./75% RH for 7 days ([6]; 7 days): 96.6% | PXRD after storage at 40° C./75% RH for 7 days ([6]; 7 days, made from acetate pattern 1 by heating to 150° C.): freebase pattern 1 | Stability of the form at RT [8]: stable at RT
Compound: CC[C@H]1OC(=O)[C@H](C)C(=O)[C@H](C)[C@@H](O[C@@H]2O[C@H](C)C[C@H](N(C)C)[C@H]2O)[C@](C)(OCC=Cc2cnc3ccccc3c2)C[C@@H](C)C(=O)[C@H](C)[C@H]2NC(=O)O[C@@]21C [freebase pattern 1]
